Patent publication US6156774A, “Beta-thiopropionyl-amino acid derivatives and their use as beta-lactamase inhibitors” (SmithKline Beecham P.L.C., priority 1996, dated 2000)

Target: B. fragilis CfiA metallo-β-lactamase (Bacteroides fragilis, UniProt P25910)
Assay: I50 screen, nitrocefin reporter substrate
Type: biochemical
Details: 25 mM PIPES pH 7, 37° C., nitrocefin 91 μM, 5 minute preincubation, Zn2+ 100 μM; read-out: I50 against B. fragilis CfiA metallo-β-lactamase
Procedure: The inhibitory activity of the compounds of the invention was measured in 25 mM PIPES pH 7 buffer at 10 concentrations (1000, 333, 111, 37, 12.3, 4.1, 1.4, 0.46, 0.15 and 0.05 μM) at 37° C. using nitrocefin (91 μM final concentration) as the reporter substrate. The assays were performed with a 5 minute preincubation of enzyme and inhibitor and were conducted in the presence of added zinc sulphate (Zn^2+ 100 μM, final concentration). the methodology is described in detail in the following references: Payne et al (1991), J. Antimicrob. Chemother., 28:255; Payne et al (1994), Antimicrob. Agents and Chemother., 38:767.

B. fragilis CfiA metallo-β-lactamase, sequence (P25910 19-249): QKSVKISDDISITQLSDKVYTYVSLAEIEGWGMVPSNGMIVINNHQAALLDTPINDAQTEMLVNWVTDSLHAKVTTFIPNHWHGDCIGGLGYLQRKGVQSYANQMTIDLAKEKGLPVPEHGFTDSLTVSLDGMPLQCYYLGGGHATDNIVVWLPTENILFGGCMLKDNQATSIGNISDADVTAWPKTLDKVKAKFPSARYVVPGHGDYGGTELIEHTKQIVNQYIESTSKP

Structure (SMILES) | IC50 [nM]
O=C(N[C@@H](C(=O)O)c1ccc(OCc2ccccc2)cc1)C(CS)CCc1ccccc1 (single isomer, unassigned) [Example 19, N-(2'-mercaptomethyl-4'-phenylbutanoyl)-p-benzyloxy-D-phenylglycine] | < 1000
CN(C)c1ccc(COc2ccc([C@@H](NC(=O)C(CS)CCc3ccccc3)C(=O)O)cc2)cc1 (single isomer, unassigned) [Example 48, N-(2'-mercaptomethyl-4'-phenylbutanoyl)-p-(p-dimethylamino)-benzyloxy-D-phenylglycine] | < 1000
O=C(N[C@@H](C(=O)O)c1ccc(OCc2cccs2)cc1)C(CS)CCc1ccccc1 (single isomer, unassigned) [Example 21, N-(2'-mercaptomethyl-4'-phenylbutanoyl)-p-(2"-thienylmethoxy)-D-phenylglycine] | < 1000
O=C(NC(C(=O)O)c1cccc(Oc2ccccc2)c1)C(CS)CCc1ccccc1 (single isomer, unassigned) [Example 3, N-(2'-mercaptomethyl-4'-phenylbutanoyl)-m-phenoxy-phenylglycine] | < 1000
O=C(N[C@@H](C(=O)O)c1ccc(OCc2ccc([N+](=O)[O-])cc2)cc1)C(CS)CCc1ccccc1 (single isomer, unassigned) [Example 53, N-(2'-mercaptomethyl-4'-phenylbutanoyl)-p-(p-nitro)-benzyloxy-D-phenylglycine] | < 1000
O=C(NC(C(=O)O)c1cccc(Oc2ccccc2)c1)C(CS)CCc1ccccc1 (single isomer, unassigned) [Example 4, N-(2'-mercaptomethyl-4'-phenylbutanoyl)-m-phenoxy-phenylglycine] | < 1000
O=C(O)c1cccc(COc2ccc([C@@H](NC(=O)C(CS)CCc3ccccc3)C(=O)O)cc2)c1 (single isomer, unassigned) [Example 50, N-(2'-mercaptomethyl-4'-phenylbutanoyl)-p-(m-carboxy)-benzyloxy-D-phenylglycine] | < 1000
O=C(NC(C(=O)O)c1ccc(Cc2ccccc2)s1)C(CS)CCc1ccccc1 (racemic) [34 (more polar isomer), 2-[(5-Benzyl)thien-2-yl]-N-[2-(mercaptomethyl)-4-phenylbutyryl]glycine] | < 1000

Continued, values first:

IC50 [nM] | Structure (SMILES)
< 1000 | CN(C)c1ccc(CCOc2ccc([C@@H](NC(=O)C(CS)CCc3ccccc3)C(=O)O)cc2)cc1 (single isomer, unassigned) [Example 66, N-(2'-mercaptomethyl-4'-phenylbutanoyl)-p-(p-dimethylamino)-phenethyloxy-D-phenylglycine]
< 1000 | O=C(N[C@@H](C(=O)O)c1ccc(OCc2ccncc2)cc1)C(CS)CCc1ccccc1 (stereo partly drawn) [Example 55, N-(2'-RS-mercaptomethyl-4'-phenylbutanoyl)-p-(4-pyridylmethoxy)-D-phenylglycine]
< 1000 | O=C(N[C@@H](C(=O)O)c1ccc(OCc2ccc(OCc3ccccc3)cc2)cc1)C(CS)CCc1ccccc1 (single isomer, unassigned) [Example 69, N-(2'-mercaptomethyl-4'-phenylbutanoyl)-p-(p-benzyloxy)-benzyloxy-D-phenylglycine]
< 1000 | C[n+]1cccc(COc2ccc([C@@H](NC(=O)C(CS)CCc3ccccc3)C(=O)[O-])cc2)c1 (stereo partly drawn) [Example 67, N-(2'-RS-mercaptomethyl-4'-phenylbutanoyl)-p-(N-methyl-3-pyridiniummethoxy)-D-phenylglycine]
< 1000 | O=C(N[C@@H](C(=O)O)c1ccc(OCc2ccccn2)cc1)C(CS)CCc1ccccc1 (stereo partly drawn) [Example 56, N-(2'-RS-mercaptomethyl-4'-phenylbutanoyl)-p-(2-pyridylmethoxy)-D-phenylglycine]

Tested on: Bacteroides fragillis 262 strain, which produces CfiA metallo-β-lactamase
Assay: Antibacterial activity (MIC) in combination with meropenem
Type: cell-based
Details: read-out: MIC of compound alone
From the text: Antibacterial activity of compounds of the invention in combination with the carbapenem antibiotic, meropenem, against the Bacteroides fragillis 262 strain, which produces CfiA metallo-β-lactamase:
[MIC=minimum inhibitory concentration (μg/ml)]

Structure (SMILES) | MIC [µg/mL]
O=C(NC(C(=O)O)c1ccc(CC2CCOC2)s1)C(CS)CCc1ccccc1 (centres unmarked) [Example 26, 2-[5-(Tetrahydrofuran-3-ylmethyl)thien-2-yl]-N-[2-(mercaptomethyl)-4-phenylbutyryl]glycine] | > 256
O=C(NC(C(=O)O)c1ccc(Cc2ccccc2)s1)C(CS)CCc1ccccc1 (centres unmarked) [Example 24, 2-[(5-Benzyl)thien-2-yl]-N-[2-(mercaptomethyl)-4-phenylbutyryl]glycine] | > 256
O=C(NC(C(=O)O)c1cccc(Oc2ccccc2)c1)C(CS)CCc1ccccc1 (single isomer, unassigned) [Example 4, N-(2'-mercaptomethyl-4'-phenylbutanoyl)-m-phenoxy-phenylglycine] | > 256

Same assay, conditions: read-out: MIC of meropenem alone

Structure (SMILES) | MIC [µg/mL]
C[C@@H](O)[C@H]1C(=O)N2C(C(=O)O)=C(S[C@@H]3CN[C@H](C(=O)N(C)C)C3)[C@H](C)[C@H]12 [meropenem, reference compound] | > 128
